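Method: 48-hour compound exposure of cells in 96-well plates, five concentrations, linear interpolation of endpoints. GI50 is the concentration that inhibits growth by half.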 Calls of active or inactive are those of the source. No stated cut-off is given here; in the data, active = GI50 up to about 1.1 µM and inactive = higher.
Columns and labels:
Experiment in all cases: DTP human tumour cell line panel, 48 h
SK-MEL-2 = test system: SK-MEL-2
RXF 393 = test system: RXF 393
TK-10 = test system: TK-10
MDA-N = test system: MDA-N
UACC-62 = test system: UACC-62
OVCAR-4 = test system: OVCAR-4
SNB-75 = test system: SNB-75
SN12C = test system: SN12C
BT-549 = test system: BT-549
NCI-H522 = test system: NCI-H522
786-0 = test system: 786-0
KM12 = test system: KM12
T47D = test system: T47D
MDA-MB-435 = test system: MDA-MB-435
SNB-19 = test system: SNB-19
HOP-92 = test system: HOP-92
A498 = test system: A498
OVCAR-8 = test system: OVCAR-8
Malme-3M = test system: Malme-3M
SF-539 = test system: SF-539
UO-31 = test system: UO-31
IGROV-1 = test system: IGROV-1
MOLT-4 = test system: MOLT-4
NCI-H226 = test system: NCI-H226
UACC-257 = test system: UACC-257
HCT-116 = test system: HCT-116
SW-620 = test system: SW-620
COLO 205 = test system: COLO 205
SF-295 = test system: SF-295
HCT-15 = test system: HCT-15
HT-29 = test system: HT-29
U-251 = test system: U-251
LOX IMVI = test system: LOX IMVI
MDA-MB-231 = test system: MDA-MB-231
CCRF-CEM = test system: CCRF-CEM
PC-3 = test system: PC-3
DU-145 = test system: DU-145
A549 = test system: A549
SK-OV-3 = test system: SK-OV-3
SF-268 = test system: SF-268
NCI-H23 = test system: NCI-H23
M14 = test system: M14
HOP-62 = test system: HOP-62
SK-MEL-5 = test system: SK-MEL-5
NCI/ADR-RES = test system: NCI/ADR-RES
SR = test system: SR
OVCAR-5 = test system: OVCAR-5
MCF7 = test system: MCF7
ACHN = test system: ACHN
SK-MEL-28 = test system: SK-MEL-28
OVCAR-3 = test system: OVCAR-3
EKVX = test system: EKVX
HCC 2998 = test system: HCC 2998
RPMI-8226 = test system: RPMI-8226
K562 = test system: K562

CNc1ccc(C(=O)CC(O)CCC(C)C2OC(=O)CC(O)CC(=O)CC(O)CC(O)CC(O)CC(O)CC3(O)CC(O)C(C(=O)NCCN4CCOCC4)C(CC(OC4OC(C)C(O)C(N)C4O)\C=C/C=C\C=C/C=C/C=C/C=C\C=C/C2C)O3)cc1 (stereo not drawn)
GI50 (SK-MEL-2): 6.43 µM (inactive) | GI50 (RXF 393): > 100 µM (inactive) | GI50 (TK-10): 1.52 µM (inactive) | GI50 (MDA-N): 0.701 µM (active) | GI50 (UACC-62): 1.68 µM (inactive) | GI50 (OVCAR-4): 2.74 µM (inactive) | GI50 (SNB-75): > 100 µM (inactive) | GI50 (SN12C): 0.417 µM (active) | GI50 (BT-549): 1.64 µM (inactive) | GI50 (NCI-H522): 0.493 µM (active) | GI50 (786-0): 1.01 µM (active) | GI50 (KM12): 2.84 µM (inactive) | GI50 (T47D): > 100 µM (inactive) | GI50 (MDA-MB-435): 1.56 µM (inactive) | GI50 (SNB-19): > 100 µM (inactive) | GI50 (HOP-92): > 100 µM (inactive) | GI50 (A498): 0.321 µM (active) | GI50 (OVCAR-8): 4.23 µM (inactive) | GI50 (Malme-3M): 0.267 µM (active) | GI50 (SF-539): 16 µM (inactive) | GI50 (UO-31): 0.404 µM (active) | GI50 (IGROV-1): 6.34 µM (inactive) | GI50 (MOLT-4): 2.3 µM (inactive) | GI50 (NCI-H226): 3.81 µM (inactive) | GI50 (UACC-257): 0.537 µM (active) | GI50 (HCT-116): > 100 µM (inactive) | GI50 (SW-620): > 100 µM (inactive)

CCc1nnc(CC)n1N1C(=O)CCC1=O
GI50 (COLO 205): > 100 µM (inactive) | GI50 (SF-295): > 100 µM (inactive) | GI50 (HCT-15): > 100 µM | GI50 (SK-MEL-2): > 100 µM (inactive) | GI50 (RXF 393): > 100 µM (inactive) | GI50 (HT-29): > 100 µM (inactive) | GI50 (TK-10): > 100 µM (inactive) | GI50 (MDA-N): > 100 µM (inactive) | GI50 (U-251): > 100 µM (inactive) | GI50 (UACC-62): > 100 µM (inactive) | GI50 (OVCAR-4): > 100 µM (inactive) | GI50 (SNB-75): > 100 µM (inactive) | GI50 (SN12C): > 100 µM (inactive) | GI50 (LOX IMVI): > 100 µM (inactive) | GI50 (BT-549): > 100 µM (inactive) | GI50 (MDA-MB-231): > 100 µM (inactive) | GI50 (CCRF-CEM): > 100 µM (inactive) | GI50 (PC-3): > 100 µM (inactive) | GI50 (NCI-H522): > 100 µM (inactive) | GI50 (DU-145): > 100 µM (inactive) | GI50 (786-0): > 100 µM (inactive) | GI50 (KM12): > 100 µM (inactive) | GI50 (A549): > 100 µM (inactive) | GI50 (MDA-MB-435): > 100 µM (inactive) | GI50 (SK-OV-3): > 100 µM (inactive) | GI50 (SNB-19): > 100 µM (inactive) | GI50 (HOP-92): > 100 µM (inactive) | GI50 (SF-268): > 100 µM (inactive) | GI50 (NCI-H23): > 100 µM (inactive) | GI50 (M14): > 100 µM (inactive) | GI50 (OVCAR-8): > 100 µM (inactive) | GI50 (HOP-62): > 100 µM (inactive) | GI50 (SK-MEL-5): > 100 µM (inactive) | GI50 (NCI/ADR-RES): > 100 µM (inactive) | GI50 (SR): > 100 µM (inactive) | GI50 (OVCAR-5): > 100 µM (inactive) | GI50 (MCF7): > 100 µM (inactive) | GI50 (ACHN): > 100 µM (inactive) | GI50 (SF-539): > 100 µM (inactive) | GI50 (UO-31): > 100 µM (inactive) | GI50 (IGROV-1): > 100 µM (inactive) | GI50 (MOLT-4): > 100 µM (inactive) | GI50 (SK-MEL-28): > 100 µM (inactive) | GI50 (OVCAR-3): > 100 µM (inactive) | GI50 (EKVX): > 100 µM (inactive) | GI50 (UACC-257): > 100 µM (inactive) | GI50 (HCC 2998): > 100 µM (inactive) | GI50 (HCT-116): > 100 µM (inactive) | GI50 (SW-620): > 100 µM (inactive) | GI50 (RPMI-8226): > 100 µM (inactive) | GI50 (K562): > 100 µM (inactive)
